Measured values published in publication PMC10178204, “Peptaibol Analogs Show Potent Antibacterial Activity against Multidrug Resistant Opportunistic Pathogens” (International Journal of Molecular Sciences, 2023).
Values after ≈ are worked out from the molar mass of the structure shown. Values joined by “and” are separate entries in the source; they are usually repeats but may differ in a detail not shown here. Equal values may be shown once. Non-standard residues stand in square brackets, D forms with d. Residues, ends and D or L forms follow the SMILES beside them. *: point of attachment. Leu(ol) = CC(C)C[C@H](N)CO; Octanoyl = CCCCCCCC(=O)*; Aib = CC(C)(N)C(=O)O

Experiments:
Escherichia coli CCUGT = details: MHB, 5 × 10^5 CFU/mL, 18 h, 35 °C, triplicate
Description: (§1) The antibacterial activity of the peptides was initially assessed on a panel of representative Gram-positive and Gram-negative organisms of high clinical relevance and commonly responsible for bacterial infections in both animals and humans. Bacillus subtilis ATCC 6633 (Bsu) was also included as a rod-shaped model Gram-positive organism. This first panel comprised: Enterococcus faecalis ATCC 29212 (Efa); Streptococcus pyogenes ATCC 12344 (Spy); and Staphylococcus aureus ATCC 25923 (Sau); Gram-negative: Escherichia coli CCUGT (Eco), Klebsiella pneumoniae ATCC 13833 (Kpn), Acinetobacter baumannii ATCC 17978 (Aba), and Pseudomonas aeruginosa ATCC 27853 (Pae) (Table 2). Both the minimum inhibitory concentration (MIC, Table 2) and the minimum bactericidal concentration (MBC, Table S1, Supporting Material) were determined.
(§2) The minimum inhibitory concentration (MIC) and the minimum bactericidal concentration (MBC) of the compounds were determined in triplicate using Mueller–Hinton broth (MHB). […] Therefore, we decided to dissolve all peptides in DMSO to a final concentration of 25 mg/mL, for consistency. The bacteria inoculum was 5 × 10^5 CFU/mL, as recommended by CLSI (Document M07-A10, 2015). […] Reference-type strains, including representatives of both Gram-positive bacteria (Bacillus subtilis ATCC 6633, Enterococcus faecalis ATCC 29212, Staphylococcus aureus ATCC 25923, the methicillin-resistant Staphylococcus aureus ATCC 43300 (MRSA), Streptococcus pyogenes ATCC 12344) and Gram-negative bacteria (Escherichia coli CCUGT, Klebsiella pneumoniae ATCC 13833, Pseudomonas aeruginosa ATCC 27853, and Acinetobacter baumannii ATCC 17978), were acquired from ATCC or CCUG culture collections. Other antibiotic-resistant clinical isolates were present in our collection at the University Teaching Hospital (Azienda Ospedaliero-Universitaria Senese ‘Santa Maria alle Scotte’) in Siena, Tuscany, Italy. Specifically, MDR carbapenem-hydrolyzing class D β-lactamase-producing Acinetobacter baumannii and metallo-β-lactamase-producing Pseudomonas aeruginosa were used in this study (Table 4).

[1] = tested on: Enterococcus faecalis ATCC 29212; details: MHB, 5 × 10^5 CFU/mL, 18 h, 35 °C, triplicate
Description: as §1, §2

[2] = tested on: Bacillus subtilis ATCC 6633; details: MHB, 5 × 10^5 CFU/mL, 18 h, 35 °C, triplicate
Description: as §1, §2

[3] = tested on: Acinetobacter baumannii ATCC 17978; details: for MIC against A. baumannii, in molar units: corresponding to 2 and 8 μg/mL
Description: as §1, §2

[4] = tested on: Pseudomonas aeruginosa ATCC 27853; details: MHB, 5 × 10^5 CFU/mL, 18 h, 35 °C, triplicate
Description: as §1, §2

[5] = tested on: Klebsiella pneumoniae ATCC 13833; details: MHB, 5 × 10^5 CFU/mL, 18 h, 35 °C, triplicate
Description: as §1, §2

[6] = tested on: Staphylococcus aureus ATCC 25923; details: MHB, 5 × 10^5 CFU/mL, 18 h, 35 °C, triplicate
Description: as §1, §2

[7] = tested on: Streptococcus pyogenes ATCC 12344; details: MHB, 5 × 10^5 CFU/mL, 18 h, 35 °C, triplicate
Description: as §1, §2

[8] = tested on: P. aeruginosa VR-143/97 (VIM-1); details: MHB, 5 × 10^5 CFU/mL, 18 h, 35 °C, triplicate
Description: as §2

[9] = tested on: P. aeruginosa 101/1477 (IMP-1); details: MHB, 5 × 10^5 CFU/mL, 18 h, 35 °C, triplicate
Description: as §2

[10] = tested on: S. aureus ATCC 43300 (MRSA); details: MHB, 5 × 10^5 CFU/mL, 18 h, 35 °C, triplicate
Description: as §2

[11] = tested on: P. aeruginosa 506/99 (VIM-2); details: MHB, 5 × 10^5 CFU/mL, 18 h, 35 °C, triplicate
Description: as §2

[12] = tested on: P. aeruginosa VA-182/00 (VIM-2); details: MHB, 5 × 10^5 CFU/mL, 18 h, 35 °C, triplicate
Description: as §2

[13] = tested on: A. baumannii SI-648 (OXA-23, OXA-51-like); details: MHB, 5 × 10^5 CFU/mL, 18 h, 35 °C, triplicate
Description: as §2

[14] = tested on: A. baumannii SI-310 (OXA-24); details: colistin-resistant isolate; MHB, 5 × 10^5 CFU/mL, 18 h, 35 °C, triplicate
Description: as §2

[15] = tested on: A. baumannii SI-12 (OXA-23); details: MHB, 5 × 10^5 CFU/mL, 18 h, 35 °C, triplicate
Description: as §2

[16] = tested on: blood agar plate (Columbia CNA Agar); test: Hemolysis on blood agar plate; details: 35 ± 2 °C, 24 h; for Hemolysis (class): 50 μg peptide (2 μL of 25 mg/mL in DMSO) spotted on blood agar, visual, triplicate; for Hemolysis (d, diameter of hemolysis zone): 50 μg spotted on blood agar, average of triplicate
Description: Hemolysis zones were visually determined and measured. […] For two additional peptides (6 and 15), only a small hemolysis zone (diameter 4–5 mm) was visible, as compared to that of the positive control (Triton X-100, 13 mm).
Briefly, 2 μL of each peptide solution in DMSO (25 mg/mL), corresponding to 50 μg, was spotted on the surface of a blood agar plate (Columbia CNA Agar, Becton Dickinson Italia S.p.A., Florence, Italy). The plate was then incubated at 35 ± 2 °C for 24 h and visually inspected for the presence of hemolysis zones (see Figure S13, Supplementary Material). The experiment was performed in triplicate. Table 2 reports the average value of the diameter of hemolysis zones measured in each individual experiment. Triton X-100 was used as a positive control (diameter of the hemolysis zone: 13 mm), while DMSO was used as a negative control.
Figure S13. Implementation of the hemolysis test as described in Bechlars et al.. After spotting
2 µL (50 µg) of each compound at a random location on the blood agar plate and incubation at 35 ±
2 °C for 24 h, the plates were manually inspected for the presence of hemolysis zones. Triton X-100
and DMSO were used as the positive and negative controls, respectively. Results were interpreted
(1 picture or pasted object on this page, not shown here)

[17] = MHB, 5 × 10^5 CFU/mL, 18 h, 35 °C, triplicate

Structure (SMILES) | MIC Eco (Escherichia coli CCUGT) [µg/mL] | MBC Efa [1] [µg/mL] | MIC Efa [1] [µg/mL] | MBC Bsu [2] [µg/mL] | MIC Bsu [2] [µg/mL] | MBC Aba [3, 17] [µg/mL] | MIC Kpn [5] [µg/mL] | MBC Sau [6] [µg/mL] | MIC Sau [6] [µg/mL] | MBC Spy [7] [µg/mL] | MIC Spy [7] [µg/mL] | MIC P. aeruginosa VR-143/97 (VIM-1) [8] [µg/mL] | MIC P. aeruginosa 101/1477 (IMP-1) [9] [µg/mL] | MBC S. aureus ATCC 43300 (MRSA) [10] [µg/mL] | MIC S. aureus ATCC 43300 (MRSA) [10] [µg/mL] | MIC P. aeruginosa 506/99 (VIM-2) [11] [µg/mL] | MIC P. aeruginosa VA-182/00 (VIM-2) [12] [µg/mL] | MBC A. baumannii SI-648 (OXA-23, OXA-51-like) [13] [µg/mL] | MIC A. baumannii SI-648 (OXA-23, OXA-51-like) [13] | MBC A. baumannii SI-310 (OXA-24) [14] [µg/mL] | further results
CCCCCCCC(=O)NC(C)(C)C(=O)NCC(=O)N[C@@H](CC(C)C)C(=O)NC(C)(C)C(=O)NCC(=O)NCC(=O)N[C@@H](CC(C)C)C(=O)NC(C)(C)C(=O)N[C@@H](CCCCN)C(=O)N[C@H](C(=O)N[C@H](CO)CC(C)C)[C@@H](C)CC [Peptide 9, 1-Oct-Aib-Gly-Leu-Aib-Gly-Gly-Leu-Aib-Lys-Ile-Lol] (Octanoyl-[Aib]GL[Aib]GGL[Aib]KI[Leu(ol)]) | > 128 | 4 (≈ 3.52 µM) | 4 (≈ 3.52 µM) | 16 (≈ 14.1 µM) | 4 (≈ 3.52 µM) | 8 (≈ 7.03 µM) | > 128 | 16 (≈ 14.1 µM) | 16 (≈ 14.1 µM) | 32 (≈ 28.1 µM) | 16 (≈ 14.1 µM) | > 128 | > 128 | 8 (≈ 7.03 µM) | 4 (≈ 3.52 µM) | > 128 | > 128 | 32 (≈ 28.1 µM) | 32 μg/mL and 32/32 μg/mL | 32 (≈ 28.1 µM) | MIC against A. baumannii, in molar units [3]: 1.8 to 7.2 µM; MIC Pae [4]: > 128 µg/mL; MIC A. baumannii SI-310 (OXA-24) [14]: 32 μg/mL and 32/32 μg/mL; MBC A. baumannii SI-12 (OXA-23) [15]: 32 µg/mL (≈ 28.1 µM); MIC A. baumannii SI-12 (OXA-23) [15]: 32 μg/mL and 32/32 μg/mL; Hemolysis (class) [16]: +; Hemolysis (d, diameter of hemolysis zone) [16]: 10 mm
CCCCCCCC(=O)NC(C)(C)C(=O)NCC(=O)N[C@@H](CC(C)C)C(=O)NC(C)(C)C(=O)NCC(=O)N[C@@H](CCCCN)C(=O)N[C@@H](CC(C)C)C(=O)NC(C)(C)C(=O)NCC(=O)N[C@H](C(=O)N[C@H](CO)CC(C)C)[C@@H](C)CC [Peptide 10, 1-Oct-Aib-Gly-Leu-Aib-Gly-Lys-Leu-Aib-Gly-Ile-Lol] | 64 (≈ 56.3 µM) | 16 (≈ 14.1 µM) | 4 (≈ 3.52 µM) | 16 (≈ 14.1 µM) | 4 (≈ 3.52 µM) | > 128 | 16 (≈ 14.1 µM) | 16 (≈ 14.1 µM) | 8 (≈ 7.03 µM) | 16 (≈ 14.1 µM) | 4 (≈ 3.52 µM) | > 128 | > 128 | 8 (≈ 7.03 µM) | 4 (≈ 3.52 µM) | > 128 | > 128 | 16 (≈ 14.1 µM) | 16 μg/mL and 16/16 μg/mL | 16 (≈ 14.1 µM) | MBC Eco (Escherichia coli CCUGT): 128 µg/mL (≈ 113 µM); MIC against A. baumannii, in molar units [3]: 1.8 to 7.2 µM; MBC Pae [4]: 128 µg/mL (≈ 113 µM); MBC Kpn [5]: 64 µg/mL (≈ 56.3 µM); MIC A. baumannii SI-310 (OXA-24) [14]: 16 μg/mL and 16/16 μg/mL; MBC A. baumannii SI-12 (OXA-23) [15]: 32 µg/mL (≈ 28.1 µM); MIC A. baumannii SI-12 (OXA-23) [15]: 32 μg/mL and 32/32 μg/mL; Hemolysis (class) [16]: +; Hemolysis (d, diameter of hemolysis zone) [16]: 11 mm
CCCCCCCC(=O)NC(C)(C)C(=O)N[C@@H](CCCCN)C(=O)N[C@@H](CC(C)C)C(=O)NC(C)(C)C(=O)NCC(=O)NCC(=O)N[C@@H](CC(C)C)C(=O)NC(C)(C)C(=O)NCC(=O)N[C@H](C(=O)N[C@@H](CC(C)C)C(N)=O)[C@@H](C)CC [Peptide 2, 1-Oct-Aib-Lys-Leu-Aib-Gly-Gly-Leu-Aib-Gly-Ile-Leu-NH2] (Octanoyl-[Aib]KL[Aib]GGL[Aib]GIL-NH2) | > 128 | 8 (≈ 6.95 µM) | 4 (≈ 3.48 µM) | 16 (≈ 13.9 µM) | 4 (≈ 3.48 µM) | 16 (≈ 13.9 µM) | 64 (≈ 55.6 µM) | 8 (≈ 6.95 µM) | 8 (≈ 6.95 µM) | 4 (≈ 3.48 µM) | 4 (≈ 3.48 µM) | > 128 | > 128 | 4 (≈ 3.48 µM) | 2 (≈ 1.74 µM) | > 128 | > 128 | 32 (≈ 27.8 µM) | 16 µg/mL (≈ 13.9 µM) | 32 (≈ 27.8 µM) | MIC Aba [3, 17]: 16 µg/mL (≈ 13.9 µM); MIC Pae [4]: > 128 µg/mL; MBC Kpn [5]: > 128 µg/mL; MIC A. baumannii SI-310 (OXA-24) [14]: 32 μg/mL and 32/32 μg/mL; MBC A. baumannii SI-12 (OXA-23) [15]: 32 µg/mL (≈ 27.8 µM); MIC A. baumannii SI-12 (OXA-23) [15]: 32 μg/mL and 32/32 μg/mL; Hemolysis (class) [16]: +; Hemolysis (d, diameter of hemolysis zone) [16]: 8 mm
